# Source: ChEMBL document CHEMBL5528028, “Discovery of benzopyridone cyanoacetates as new type of potential broad-spectrum antibacterial candidates” (Eur J Med Chem, 2024)
# How the values were obtained:
# Format in all cases: functional
# Pseudomonas aeruginosa [1] = test: Antibacterial activity against Pseudomonas aeruginosa assessed growth inhibition by micro broth dilution method
# Staphylococcus aureus [2] = test: Antibacterial activity against methicillin-resistant Staphylococcus aureus assessed growth inhibition by micro broth dilution method
# Escherichia coli [3] = test: Antibacterial activity against Escherichia coli assessed growth inhibition by micro broth dilution method
# Acinetobacter baumannii = test: Antibacterial activity against Acinetobacter baumannii assessed growth inhibition by micro broth dilution method
# Pseudomonas aeruginosa [4] = test: Antibacterial activity against Pseudomonas aeruginosa ATCC 27853 assessed growth inhibition by micro broth dilution method
# Staphylococcus aureus [5] = test: Antibacterial activity against Staphylococcus aureus ATCC 25923 assessed growth inhibition by micro broth dilution method
# Klebsiella pneumoniae = test: Antibacterial activity against Klebsiella pneumonia assessed growth inhibition by micro broth dilution method
# Enterococcus faecalis = test: Antibacterial activity against Enterococcus faecalis assessed growth inhibition by micro broth dilution method
# Escherichia coli [6] = test: Antibacterial activity against Escherichia coli ATCC 25922 assessed growth inhibition by micro broth dilution method
# Staphylococcus aureus [7] = test: Antibacterial activity against Staphylococcus aureus assessed growth inhibition by micro broth dilution method
# Staphylococcus aureus [8] = test: Antibacterial activity against Staphylococcus aureus ATCC 29213 assessed growth inhibition by micro broth dilution method
SMILES,MIC (Pseudomonas aeruginosa [1]) [µg/mL],MIC (Staphylococcus aureus [2]) [µg/mL],MIC (Escherichia coli [3]) [µg/mL],MIC (Acinetobacter baumannii) [µg/mL],MIC (Pseudomonas aeruginosa [4]) [µg/mL],MIC (Staphylococcus aureus [5]) [µg/mL],MIC (Klebsiella pneumoniae) [µg/mL],MIC (Enterococcus faecalis) [µg/mL],MIC (Escherichia coli [6]) [µg/mL],MIC (Staphylococcus aureus [7]) [µg/mL],MIC (Staphylococcus aureus [8]) [µg/mL]
C#CCn1cc(C(=O)OCC)c(=O)c2cc(F)c(F)cc21,16,128,4,256,256,256,128,128,64,128,128
CCOC(=O)c1cn(Cc2ccc([N+](=O)[O-])cc2)c2cc(C(C#N)C(=O)OCC)c(F)cc2c1=O.[Na+] (centres undefined),128,256,0.5,128,64,1,128,32,128,128,64
CCCCCCn1cc(C(=O)OCC)c(=O)c2cc(F)c([C-](C#N)C(=O)OCC)cc21.[Na+] (centres undefined),0.5,32,0.5,0.5,1,0.5,1,16,1,16,1
CCOC(=O)c1cn(CC(=O)N2CCN(C(=O)OC(C)(C)C)CC2)c2cc(F)c(F)cc2c1=O,64,64,4,64,32,128,256,64,64,256,64
CCOC(=O)c1cn(CC=C(C)C)c2cc(F)c(F)cc2c1=O,64,256,8,256,256,64,32,128,64,128,128
CCCCn1cc(C(=O)OCC)c(=O)c2cc(F)c(F)cc21,64,256,16,128,256,128,64,64,128,32,128
CCOC(=O)C(C#N)c1cc2c(cc1F)c(=O)c(C(=O)O)cn2CC=C(C)C (centres undefined),8,8,32,1,1,4,0.25,64,1,4,4
CCCCCCn1cc(C(=O)OCC)c(=O)c2cc(F)c(F)cc21,64,256,8,64,256,128,64,64,64,8,128
CCCCCCCCn1cc(C(=O)OCC)c(=O)c2cc(F)c(F)cc21,64,256,4,64,256,128,64,64,64,4,16
CCOC(=O)c1cn(C)c2cc(F)c(F)cc2c1=O,64,256,16,256,256,256,64,128,128,128,128
CCOC(=O)c1cn(CCN2CCOCC2)c2cc(F)c(F)cc2c1=O,128,256,2,2,128,256,256,128,128,64,256
CCOC(=O)c1cn(Cc2ccccn2)c2cc(F)c(F)cc2c1=O,128,256,2,16,64,64,128,128,64,64,128
CCOC(=O)c1cn(Cc2ccc(F)cc2F)c2cc([C-](C#N)C(=O)OCC)c(F)cc2c1=O.[Na+] (centres undefined),64,64,1,32,2,0.5,4,8,2,128,4
CCOC(=O)c1cn2c3c(c([C-](C#N)C(=O)OCC)c(F)cc3c1=O)OC[C@@H]2C.[Na+] (some centres undefined),256,128,64,128,64,4,256,128,64,256,256
CCCCn1cc(C(=O)OCC)c(=O)c2cc(F)c([C-](C#N)C(=O)OCC)cc21.[Na+] (centres undefined),8,32,8,16,8,2,16,16,16,64,8
CCOC(=O)C(C#N)c1c(F)cc2c(=O)c(C(=O)O)cn(CC)c2c1F (centres undefined),64,16,64,0.5,4,32,4,128,2,16,32
CCn1cc(C(=O)O)c(=O)c2cc(F)c(N3CCNCC3)cc21 [NORFLOXACIN],8,8,4,2,8,8,8,8,4,8,4
CCOC(=O)c1cn(CC(=O)N2CCCCC2)c2cc([C-](C#N)C(=O)OCC)c(F)cc2c1=O.[Na+] (centres undefined),128,32,32,16,16,64,256,64,64,256,8
CCCCCn1cc(C(=O)OCC)c(=O)c2cc(F)c(F)cc21,64,256,16,64,256,256,64,64,64,32,64
